# Measurements reported in patent publication US20220323476A1, “ANTIVIRAL PRODRUGS AND FORMULATIONS THEREOF” (priority 2019, published 2022).
# Experiments:
# [1] = Single dose rhesus macaque PK, subcutaneous aqueous suspension, plasma EFdA by LC-MS/MS
# Method: The aqueous suspension formulations were derived from 0.25;% CMC-Na and 0.1;%/0.5% TWEEN-80 with equivalent concentration of 116 mg/mL and 319 mg/mL of EFdA for prodrug 5 and EFdA respectively.
# [2] = Single dose rat PK, subcutaneous aqueous suspension, plasma EFdA by LC-MS/MS; details: SC; for Cmax compared with EFdA itself / time with plasma levels of EFdA above LLOQ: single dose, 10 mg/kg equivalent of EFdA, 4 mg/mL, 0.5% CMC-Na/0.5% TWEEN-80
# Method: Animals (Male SD rats ˜200-250 g and Male rhesus macaques ˜2-3 kg) were obtained from an approved vendor (SLAC Laboratory Animal Co. Ltd., Shanghai, China and/or Topgene Biotechnology, Wuhan city, Hubei Province, China).
# Animals were fasted at least 12 hours prior to the administration. All animals had access to Certified Rodent and non-Rodent Diet (Catalog #M01-F, SLAC Laboratory Animal Cl. Ltd., Shanghai, China) ad libitum 4 hours post dosing.
# The formulations were prepared on the day of dosing. Animals were dosed within four hours after the formulation is prepared. Two 20 μL aliquots of each formulation were removed from each of the formulation solutions, transferred into 1.5 mL of polypropylene microcentrifuge tubes and run dose validation by LC/UV or LC-MS/MS.
# For SC dosing, the dose formulation was administered via subcutaneous injection following facility SOPs.
# Approximately 200 μL blood was collected from saphenous vein at each time point for rats and 0.5 mL for rhesus macaques. All blood samples were transferred into microcentrifuge tubes containing 4 μL of K2EDTA (0.5M) as anti-coagulant and placed on wet ice until processed for plasma.
# Blood: Blood samples were processed for plasma by centrifugation at approximately 4° C., 3000 g 15 min within half an hour of collection. Plasma samples was stored in polypropylene tubes, quick frozen over dry ice and kept at −70±10° C. until LC/MS/MS analysis.
# If the carryover couldn't meet the criteria, then the percent of carryover should be estimated following in-house bioanalytical SOP.
# Plasma concentration versus time data was analyzed by non-compartmental approaches using the Phoenix WINNONLIN 6.3 software program. Cmax, Tmax, T1/2, AUC(0-t), AUC(0-inf), MRT(0-t), MRT(0-inf), % F and graphs of plasma concentration versus time profile were reported.
# Several prodrugs including EFdA (1) as a control were subjected to a single dose rat PK studies via subcutaneous route of administration. All were injected with equivalent doses of 10 mg/kg and concentration of 4 mg/mL of EFdA as an aqueous suspension formulation derived from 0.5% CMC-Na and 0.5% TWEEN-80.
# [3] = Aqueous solubility (pH 7.4); details: aqueous medium at pH 7.4, pH 7.4, aqueous buffer
# [4] = male, rhesus monkey, plasma, sc, 50 mg/kg
SMILES,"AUC(0-inf) [1, 4] [µM·h]","half-life [1, 4] [h]",Cmax compared with EFdA itself [2],time with plasma levels of EFdA above LLOQ [2],"half life and mean residence life compared with EFdA ([2]; 100 mg/kg equivalent dose, 120 mg/mL (prodrug 3) vs 319 mg/mL (EFdA))",solubility [3] [µg/mL],"time with plasma levels of EFdA above LLOQ ([1]; rhesus macaque, SC, single dose, 50 mg/kg equivalent of EFdA, 116 mg/mL)"
"C#C[C@]1(CO)O[C@@H](n2cnc3c(N)nc(F)nc32)C[C@@H]1O [Compound 1, (2R,3S,5R)-5-(6-amino-2-fluoro-9H-purin-9-yl)-2-ethynyl-2-(hydroxymethyl) tetrahydrofuran-3-ol]",135 ± 22.7,69 ± 14,–,–,–,–,–
"C#C[C@]1(COC(=O)C(C)C)O[C@@H](n2cnc3c(N)nc(F)nc32)C[C@@H]1OC(=O)C(C)C [Compound 2, (2R,3S,5R)-5-(6-amino-2-fluoro-9H-purin-9-yl)-2-ethynyl-2-((isobutyryloxy)methyl) tetrahydrofuran-3-yl isobutyrate]",–,–,much lower than EFdA itself,more than a week,–,–,–
"C#C[C@]1(COC(=O)C(CC)CC)O[C@@H](n2cnc3c(N)nc(F)nc32)C[C@@H]1OC(=O)C(CC)CC [Compound 3, (2R,3S,5R)-5-(6-amino-2-fluoro-9H-purin-9-yl)-2-(((2-ethylbutanoyl)oxy)methyl)-2-ethynyltetrahydrofuran-3-yl 2-ethylbutanoate]",–,–,much lower than EFdA itself,more than a week,Enhanced,< 2,–
"C#C[C@]1(COC(=O)Cc2ccccc2)O[C@@H](n2cnc3c(N)nc(F)nc32)C[C@@H]1OC(=O)Cc1ccccc1 [Compound 5, (2R,3S,5R)-5-(6-amino-2-fluoro-9H-purin-9-yl)-2-ethynyl-2-((2-phenylacetoxy)methyl) tetrahydrofuran-3-yl 2-phenylacetate]",–,–,much lower than EFdA itself,more than a week,–,< 2,more than a month
C#C[C@]1(COC(=O)CN)O[C@@H](n2cnc3c(N)nc(F)nc32)C[C@@H]1OC(=O)CN [Compound 14],–,–,–,–,–,> 106000,–
